# Results as given in ChEMBL document CHEMBL1201862, “PubChem BioAssay data set” (2004).
#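 How tested: cells in 96-well plates exposed to compound for 48 hours at five concentrations. Abbreviation: GI50, concentration required for 50% inhibition of growth.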 Active and inactive are the calls of the source. Rule as the data show it: active = GI50 up to about 1.1 µM and inactive = higher.
# What was measured:
# Assay in all cases: inhibition of tumour cell growth, NCI panel, 48 h
# KM-20L2 = tested on: KM-20L2
# LXFL 529 = tested on: LXFL 529
# M19-MEL = tested on: M19-MEL
# XF498 = tested on: XF498
# BT-549 = tested on: BT-549
# MDA-N = tested on: MDA-N
# DLD-1 = tested on: DLD-1
# HOP-18 = tested on: HOP-18
Structure (SMILES),GI50 (BT-549),GI50 (MDA-N),also measured
O=C1NC2(C=Cc3c(ccc4ccccc34)O2)Oc2ccccc21 (stereo unspecified),–,–,GI50 (KM-20L2): 25.8 µM (inactive); GI50 (LXFL 529): 18.3 µM (inactive); GI50 (M19-MEL): 25.1 µM (inactive); GI50 (XF498): 19.1 µM (inactive)
COc1ccc2cc(-c3ccc(OC)c(OC)c3)c(=O)oc2c1,> 100 µM (inactive),> 100 µM (inactive),–
O=C1CCC(=O)c2ccccc2N1,–,–,GI50 (DLD-1): > 100 µM (inactive); GI50 (HOP-18): > 100 µM (inactive); GI50 (KM-20L2): > 100 µM (inactive); GI50 (LXFL 529): > 100 µM (inactive); GI50 (M19-MEL): > 100 µM (inactive); GI50 (XF498): > 100 µM (inactive)
COC(=O)c1cc2c(cc1CC(Cc1ccc3c(c1)CCCC3)C(=O)OC)CCCC2 (stereo unspecified),> 100 µM (inactive),65.3 µM (inactive),–
NCCc1ccc2c(c1)C(=O)c1c(O)ccc(O)c1C2=O,6.73 µM (inactive),2.82 µM (inactive),–
O=C1NCc2ccccc2S(=O)(=O)n2cccc21,> 100 µM (inactive),> 100 µM (inactive),–
C=CCC1(C)CCCN(Cc2ccccc2)C1=O (stereo unspecified),> 10 µM (inactive),> 10 µM (inactive),–
C=C1C(=O)O[C@@H]2/C=C(C)/C=C\[C@@H]3O[C@@]3(C)C[C@@H](O)C12 (stereo partly specified),–,13.2 µM (inactive),–
C#CCCCC(=C)C[C@@H]1OC(=O)[C@H](C)[C@@H]1O,–,> 100 µM (inactive),–
Brc1ccc(-c2ccc(-c3ccc(-c4ccc(Br)s4)s3)s2)s1,> 100 µM (inactive),> 100 µM (inactive),–
O=S(=O)(c1ccc(Br)cc1)n1c2ccc(Br)cc2c2nc3ccccc3nc21,> 100 µM (inactive),> 100 µM (inactive),–
CC1CC[C@@]2(OC1)OC1C[C@H]3[C@@H]4CC[C@H]5CC(OC6OC(CO)C(OC7OC(CO)C(O)C(O)C7OC7OC(CO)C(O)C(O)C7O)C(O)C6O)CCC5(C)[C@H]4CCC3(C)C1[C@@H]2C (stereo partly specified),1.38 µM (inactive),2.86 µM (inactive),–
O=C1NC(=O)C(CCC(=O)c2cccc3ccccc23)C(=O)N1,> 100 µM (inactive),> 100 µM (inactive),–
CN(C)CCNC(=O)Cn1cc([N+](=O)[O-])c(=O)c2ccccc21,> 100 µM (inactive),> 100 µM (inactive),–
C#CCOCn1cc(C)c(=O)[nH]c1=O,–,> 100 µM (inactive),–
C/C=C1\CN(C(=O)OC(C)(C)C)C1C(=O)OC(C)(C)C (stereo unspecified),> 100 µM (inactive),> 100 µM (inactive),–
CCOC(=O)N1CCc2cc(OC)c(OC)c3c2C1CC3=O (stereo unspecified),–,–,GI50 (DLD-1): > 100 µM (inactive); GI50 (HOP-18): > 100 µM (inactive); GI50 (KM-20L2): > 100 µM (inactive); GI50 (LXFL 529): > 100 µM (inactive); GI50 (M19-MEL): > 100 µM (inactive)
COC1/C=C/C(C)C(C(C)C(OC)C(C)CCC(=O)C(C)C(C/C=C/N(C)C=O)OC)OC(=O)C=CC2OC2(C)CC(OC)C(OC)C2=CC(=O)O[C@@H](C(C)C(OC)CC(OC)/C=C/C(C)C(O)C1)[C@H]2O (stereo partly specified),0.0214 µM (active),0.00471 µM (active),–
O=C(NCCCCCCCCNC(=O)c1cnc2ccccc2n1)c1cnc2ccccc2n1,–,–,GI50 (DLD-1): > 100 µM (inactive); GI50 (HOP-18): > 100 µM (inactive); GI50 (LXFL 529): > 100 µM (inactive); GI50 (M19-MEL): > 100 µM (inactive); GI50 (XF498): > 100 µM (inactive)
O=C1/C(=C\c2ccc(F)cc2)CCOc2c1ccc1ccccc21,25.6 µM (inactive),–,–
Cc1nc2ccccc2c(=O)n1-c1ccccc1F,–,–,GI50 (DLD-1): > 100 µM (inactive); GI50 (HOP-18): > 100 µM (inactive); GI50 (KM-20L2): > 100 µM (inactive); GI50 (LXFL 529): > 100 µM (inactive); GI50 (M19-MEL): > 100 µM (inactive)
O=C(CSCC(=O)N/N=C/c1cccs1)N/N=C/c1cccs1,43.2 µM (inactive),–,–

Structure (SMILES),GI50 (BT-549),GI50 (MDA-N),also measured
COc1ccccc1NCC(=O)Nn1c(C)nc2ccc(S(=O)(=O)Nc3ccccc3OC)cc2c1=O,> 100 µM (inactive),29.7 µM (inactive),–
C=C(CO)CC(O)c1cc(OC)ccc1OC (stereo unspecified),–,–,GI50 (LXFL 529): > 100 µM (inactive); GI50 (M19-MEL): > 100 µM (inactive); GI50 (XF498): > 100 µM (inactive)
CCOC(=O)C1(C(=O)OCC)[C@H](c2ccccc2)C2=NO[C@@H]3CCC[C@H]1[C@H]23,44.8 µM (inactive),31.2 µM (inactive),–
O=Cc1ccc(-c2ccc(-c3ccc(CO)s3)o2)s1,6.24 µM (inactive),–,–
OCCN1CCN2C=C(C3CCCC4N(CCO)CCN34)CCC21 (stereo unspecified),–,–,GI50 (DLD-1): 22.7 µM (inactive); GI50 (HOP-18): > 100 µM (inactive); GI50 (KM-20L2): > 100 µM (inactive); GI50 (LXFL 529): 43.8 µM (inactive); GI50 (M19-MEL): 34.7 µM (inactive); GI50 (XF498): 48.1 µM (inactive)
CCCC1CC(=O)NC(=O)C1C(=O)OC(C)(C)C (stereo unspecified),> 100 µM (inactive),> 100 µM (inactive),–
N#Cc1nc(/C=C/c2cccs2)oc1N,–,> 100 µM (inactive),–
CC(=N\N)/C(C)=N/N=C(C)/C(C)=N/N,> 100 µM (inactive),> 100 µM (inactive),–
COc1ccn(CC(=O)c2cc3ccccc3[nH]2)c(=O)n1,> 100 µM (inactive),> 100 µM (inactive),–
Cc1cc(C)c(N[S+]([O-])c2cccc([N+](=O)[O-])c2)c(C)c1 (stereo unspecified),> 100 µM (inactive),–,–
COc1ccc(C2C(C#N)=C(S)N(C3OC(CO)C(O)C(O)C3O)C(C)=C2C(C)=O)cc1 (stereo unspecified),92 µM (inactive),72.3 µM (inactive),–
Cn1nc(-c2ccccc2)c(N=[N+]=[N-])cc1=O,–,–,GI50 (KM-20L2): > 100 µM (inactive); GI50 (LXFL 529): > 100 µM (inactive); GI50 (M19-MEL): > 100 µM (inactive); GI50 (XF498): > 100 µM (inactive)
Cc1cc2ccccc2n1CC(=O)N1CCCC1,> 100 µM (inactive),> 100 µM (inactive),–
COC(=O)c1ccccc1/C=C1\Cc2c(C)cc(C)cc2C1=O,> 100 µM (inactive),> 100 µM (inactive),–
Cc1c2ccccc2cc2nc3ccccc3n12,> 10 µM (inactive),> 10 µM (inactive),–
COc1cc(/C=N/n2c(-c3ccccc3)n[nH]c2=O)cc(OC)c1OC,2.13 µM (inactive),0.174 µM (active),–
Cc1ccc(S(=O)(=O)N2CCC3(C(/C=C/c4ccccc4)=Nc4ccccc43)C2c2ccccc2)cc1 (stereo unspecified),–,–,GI50 (DLD-1): > 100 µM (inactive); GI50 (KM-20L2): > 100 µM (inactive); GI50 (LXFL 529): > 100 µM (inactive); GI50 (M19-MEL): > 100 µM (inactive); GI50 (XF498): 63.1 µM (inactive)
CN(C)c1ccc(/C=C2\Cc3ccccc3C2=O)cc1Br,–,–,GI50 (DLD-1): 47.5 µM (inactive); GI50 (KM-20L2): 81.8 µM (inactive); GI50 (LXFL 529): 33.8 µM (inactive); GI50 (M19-MEL): 51.1 µM (inactive); GI50 (XF498): 26.1 µM (inactive)
N#C/C(=C1\OC(=N)C(c2ccc(Cl)cc2)=C1O)c1ccc(Cl)cc1,–,–,GI50 (DLD-1): 15.3 µM (inactive); GI50 (HOP-18): 16.9 µM (inactive); GI50 (KM-20L2): 18.4 µM (inactive); GI50 (LXFL 529): 11.7 µM (inactive); GI50 (M19-MEL): 15.1 µM (inactive)
COC(=O)OCC1OC(N2C(=O)NC(=O)C(Br)C2N=[N+]=[N-])CC1OC(=O)OC (stereo unspecified),–,–,GI50 (DLD-1): > 100 µM (inactive); GI50 (KM-20L2): > 100 µM (inactive); GI50 (LXFL 529): > 100 µM (inactive); GI50 (M19-MEL): > 100 µM (inactive); GI50 (XF498): > 100 µM (inactive)
CCN(CCN(CC)C(=O)NC)C(=O)NC,> 100 µM (inactive),> 100 µM (inactive),–
O=C(O)c1ccc(S(=O)(=O)c2ccccc2[N+](=O)[O-])cc1,> 10 µM (inactive),> 10 µM (inactive),–

Structure (SMILES),GI50 (BT-549),GI50 (MDA-N),also measured
CCCCC1Cc2cc(O)ccc2-c2nc3cc(O)ccc3n21.CCCCC1Cc2cc(O)ccc2-c2nc3ccc(O)cc3n21 (stereo unspecified),19.2 µM (inactive),14.3 µM (inactive),–
COC(=O)C12CCC(C(F)(F)C1=O)C2(C)C (stereo unspecified),> 100 µM (inactive),> 100 µM (inactive),–
COc1ccc2c(c1)CCC(CN1CCN(CCOC(c3ccc(F)cc3)c3ccc(F)cc3)CC1)=C2,13.6 µM (inactive),11.8 µM (inactive),–
C=CC[C@H]1C[C@@]2(C)OC[C@H](C(C)C)N2C1=O,–,–,GI50 (HOP-18): > 100 µM (inactive); GI50 (KM-20L2): > 100 µM (inactive); GI50 (M19-MEL): > 100 µM (inactive); GI50 (XF498): > 100 µM (inactive)
O=C(NCCCCCCCCCCCCNC(=O)Nc1cccc2ccccc12)Nc1cccc2ccccc12,14.4 µM (inactive),17.4 µM (inactive),–
CCCCN1C(=O)C2Cc3c([nH]c4ccccc34)C(c3cccc(O)c3)N2C1=O (stereo unspecified),19 µM (inactive),19.2 µM (inactive),–
O=C1c2sc(-c3ccc(Cl)cc3)cc2-n2cccc21,> 100 µM (inactive),> 100 µM (inactive),–
C=C(C)C1Cc2c(cc3c(c2O)c(=O)c2ccccc2n3C)O1 (stereo unspecified),1.72 µM (inactive),3.2 µM (inactive),–
C#CCSC(C=C=C)P(=O)(OC(C)C)OC(C)C (stereo unspecified),26.4 µM (inactive),> 100 µM (inactive),–
O=C1Nc2c(Cl)cc(Cl)cc2/C1=N/Nc1ccccc1[N+](=O)[O-],9.68 µM (inactive),> 100 µM (inactive),–
CC1(c2nc3ccccc3[nH]2)CCC(C(N)=O)C(C)(C)O1 (stereo unspecified),> 100 µM (inactive),> 100 µM (inactive),–
Cn1c(=O)c2c(ncn2CCCCn2ccnc2[N+](=O)[O-])n(C)c1=O,–,–,GI50 (KM-20L2): > 100 µM (inactive); GI50 (LXFL 529): > 100 µM (inactive); GI50 (M19-MEL): > 100 µM (inactive); GI50 (XF498): > 100 µM (inactive)
Cc1cccc(Nc2cn(COCc3ccccc3)c(=O)[nH]c2=O)c1,69.2 µM (inactive),> 100 µM (inactive),–
C=CC(=O)NCCSCCCOC1(C(=O)O)CC(O)C(NC(C)=O)C(C(O)C(O)CO)O1 (stereo unspecified),–,–,GI50 (DLD-1): > 100 µM (inactive); GI50 (LXFL 529): > 100 µM (inactive); GI50 (XF498): > 100 µM (inactive)
CC(=O)NC1C(OCc2ccccc2)OC(CO)C(O)C1OC(C)C(=O)NC(C)C(=O)N[C@@H](CCC(=O)OCCCNC1c2ccccc2Nc2cccc([N+](=O)[O-])c21)C(N)=O (stereo partly specified),–,0.0152 µM (active),GI50 (DLD-1): < 0.01 µM (active); GI50 (HOP-18): < 0.01 µM (active); GI50 (KM-20L2): < 0.01 µM (active); GI50 (LXFL 529): < 0.01 µM (active)
COC(=O)C1[C@@H](C(=O)OC)C(=O)O[C@H]1c1cc(OC)c(OC)c(OC)c1 (stereo partly specified),–,–,GI50 (DLD-1): > 100 µM (inactive); GI50 (HOP-18): > 100 µM (inactive); GI50 (KM-20L2): > 100 µM (inactive); GI50 (LXFL 529): > 100 µM (inactive); GI50 (M19-MEL): > 100 µM (inactive)
CCCCCCCCCC[C@@H](O)[C@H]1CC[C@@H]([C@H]2CC[C@H]([C@H](O)CCCCCCCCCC[C@@H]3CC(CC(C)=O)C(=O)O3)O2)O1 (stereo partly specified),2.48 µM (inactive),–,–
CCCCC/C=C\C=C1\C(=O)C=C[C@@H]1C/C=C\CCCC(=O)O,2.05 µM (inactive),1.96 µM (inactive),–
Cc1cc(O)nc2c3c(ccc12)OC(C)(C)C=C3,36.6 µM (inactive),2.08 µM (inactive),–
COC(=O)/C1=C/c2c([nH]c3ccccc23)/C(C(=O)OC)=C\c2c1[nH]c1ccccc21 [CAULERPIN],25.6 µM (inactive),15.5 µM (inactive),–
C/C=C1/C[C@@H](C)[C@@](C)(O)C(=O)OCC2=CC[N+]3([O-])CC[C@@H](OC1=O)[C@@H]23 (stereo partly specified) [SENECIONINE N-OXIDE],> 100 µM (inactive),> 100 µM (inactive),–
